Results published in patent publication US20200031805A1, “ARYL HYDROCARBON RECEPTOR (AHR) MODULATOR COMPOUNDS” (PHENEX PHARMACEUTICALS AG, priority 2017, published 2020).

Molecular target: T1, aryl hydrocarbon receptor (AhR) (Homo sapiens, UniProt P35869)
T1 construct: The HepG2 CYP1A1-Luc cells do express basal luciferase activity that can be increased via potent AhR agonists or decreased via potent AhR antagonists; endogenous in cells; host or cells: HepG2 (DSMZ # ACC 180) stably carrying a CYP1A1 promoter-firefly luciferase reporter
T1 sequence (P35869 11-848): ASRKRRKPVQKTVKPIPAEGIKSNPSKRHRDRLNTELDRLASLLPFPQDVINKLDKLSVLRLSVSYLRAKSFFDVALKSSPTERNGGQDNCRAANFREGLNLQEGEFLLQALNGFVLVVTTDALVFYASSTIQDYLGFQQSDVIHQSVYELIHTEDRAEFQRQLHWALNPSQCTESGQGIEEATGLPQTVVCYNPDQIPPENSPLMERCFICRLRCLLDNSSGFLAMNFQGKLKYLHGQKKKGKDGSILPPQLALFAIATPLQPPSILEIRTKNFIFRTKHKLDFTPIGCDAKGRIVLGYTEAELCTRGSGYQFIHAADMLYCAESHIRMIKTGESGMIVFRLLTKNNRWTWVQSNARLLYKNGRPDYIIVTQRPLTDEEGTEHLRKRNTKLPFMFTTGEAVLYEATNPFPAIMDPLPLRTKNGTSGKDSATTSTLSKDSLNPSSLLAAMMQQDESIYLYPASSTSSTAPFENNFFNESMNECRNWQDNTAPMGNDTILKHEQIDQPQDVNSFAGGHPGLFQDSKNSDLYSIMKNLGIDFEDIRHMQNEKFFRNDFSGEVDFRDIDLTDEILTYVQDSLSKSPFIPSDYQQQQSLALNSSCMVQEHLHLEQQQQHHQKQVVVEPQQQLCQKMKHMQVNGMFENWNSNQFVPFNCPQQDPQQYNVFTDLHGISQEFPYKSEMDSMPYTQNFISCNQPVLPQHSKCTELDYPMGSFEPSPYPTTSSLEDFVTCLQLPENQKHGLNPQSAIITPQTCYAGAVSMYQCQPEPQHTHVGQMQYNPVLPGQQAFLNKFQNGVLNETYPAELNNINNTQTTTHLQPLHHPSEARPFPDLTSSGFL
Experiment: AhR direct luciferase reporter assay in HepG2 cells (HepG2 CYP1A1-LUC)
Type: cell-based
Conditions: luciferase activity after 18 hours, no exogenous AhR agonist or 10 nM VAF347, read-out: AhR potency (AhR antagonistic potency, IC50)
Protocol: AhR Direct Luciferase Reporter Assay in HepG2 Cells.
A stable cell line (HepG2 CYP1A1-LUC) was used in which part of the promoter region of the human CYP1A1 gene is stably integrated into the genome of human HepG2 hepatocytes (DSZM # ACC 180) in front of a Photinus pyralis Firefly Luciferase gene. […] The resulting vector was linearized with NotI, transfected into HepG2 cells (DSMZ # ACC 180) and stably transfected clones selected with 250 μg/ml Hygromycin B. After repetitive rounds of subcloning and testing for robustly regulated luciferase activity after AhR agonist stimulation, a stable clonal HepG2 CYP1A1-Luc cell line was selected.
The HepG2 CYP1A1-Luc cells do express basal luciferase activity that can be increased via potent AhR agonists or decreased via potent AhR antagonists, added to the growth medium of the cells.
Cells are further cultivated for 18 hours and luciferase activities are determined from extracts of cells in buffers containing D-Luciferine and ATP using a LUMIstar Optima microplate Luminometer from BMG Labtech.

| Compound | IC50 [nM] |
| --- | --- |
| Cc1ccccc1-c1cc2ccc(NC(=O)c3ccn[nH]3)cc2[nH]1 [Example 3, N-(2-(O-TOLYL)-1H-INDOL-6-YL)-1H-PYRAZOLE-5-CARBOXAMIDE] | 100 to 1000 |
| Cc1ccccc1-c1cc2ccc(NC(=O)c3ccnn3C(C)C)cc2[nH]1 [2/3, 1-ISOPROPYL-N-(2-(O-TOLYL)-1H-INDOL-6-YL)-1H-PYRAZOLE-5-CARBOXAMIDE] | > 1000 |
| Cn1nccc1C(=O)Nc1ccc2cc(-c3cccc(Cl)c3)[nH]c2c1 [1/2, N-(2-(3-CHLOROPHENYL)-1H-INDOL-6-YL)-1-METHYL-1H-PYRAZOLE-5-CARBOXAMIDE] | 100 to 1000 |
| Cc1ccccc1-c1cc2ccc(NC(=O)c3ccc(O)c(C(N)=O)c3)cc2[nH]1 [3/4, 4-HYDROXY-N^1-(2-(O-TOLYL)-1H-INDOL-6-YL)ISOPHTHALAMIDE] | > 1000 |
| Cn1nccc1C(=O)Nc1ccc2cc(-c3ccccc3F)[nH]c2c1 [1/1, N-(2-(2-FLUOROPHENYL)-1H-INDOL-6-YL)-1-METHYL-1H-PYRAZOLE-5-CARBOXAMIDE] | 100 to 1000 |
| Cn1nccc1C(=O)Nc1ccc2cc(-c3ccc(Cl)cc3Cl)[nH]c2c1 [2/2, N-(2-(2,4-DICHLOROPHENYL)-1H-INDOL-6-YL)-1-METHYL-1H-PYRAZOLE-5-CARBOXAMIDE] | 100 to 1000 |
| Cc1cc2cc(-c3ccccc3C(F)(F)F)[nH]c2cc1NC(=O)c1ncnn1C [Example 4, 1-METHYL-N-(5-METHYL-2-(2-(TRIFLUOROMETHYL)PHENYL)-1H-INDOL-6-YL)-1H-1,2,4-TRIAZOLE-5-CARBOXAMIDE] | < 100 |
| Cn1nccc1C(=O)Nc1ccc2cc(-c3ccccc3Cl)[nH]c2c1 [Example 2, N-(2-(2-Chlorophenyl)-1H-indol-6-yl)-1-methyl-1H-pyrazole-5-carboxamide] | 100 to 1000 |
| Cn1nccc1C(=O)Nc1ccc2cc(-c3cc(F)ccc3C(F)F)[nH]c2c1 [6/4] | < 100 |
| Cc1ccccc1-c1cc2ccc(NC(=O)c3cccn3C)cc2[nH]1 [3/2, 1-METHYL-N-(2-(O-TOLYL)-1H-INDOL-6-YL)-1H-PYRROLE-2-CARBOXAMIDE] | < 100 |
| Cn1nccc1C(=O)Nc1ccc2cc(-c3ccccc3C(F)(F)F)[nH]c2c1 [2/1, 1-METHYL-N-(2-(2-(TRIFLUOROMETHYL)PHENYL)-1H-INDOL-6-YL)-1H-PYRAZOLE-5-CARBOXAMIDE] | < 100 |

Now from value to compound:

| IC50 [nM] | Compound |
| --- | --- |
| < 100 | Cc1ccccc1-c1cc2ccc(NC(=O)c3ccccn3)cc2[nH]1 [3/5, N-(2-(O-TOLYL)-1H-INDOL-6-YL)PICOLINAMIDE] |
| < 100 | Cc1ccccc1-c1cc2ccc(NC(=O)c3ccco3)cc2[nH]1 [3/3, N-(2-(O-TOLYL)-1H-INDOL-6-YL)FURAN-2-CARBOXAMIDE] |
| < 100 | Cn1nccc1C(=O)Nc1ccc2cc(-c3ccccc3C(F)F)[nH]c2c1 [6/1] |
| < 100 | Cn1ncnc1C(=O)Nc1ccc2cc(-c3ccccc3C(F)F)[nH]c2c1 [Example 6, N-(2-(2-(Difluoromethyl)phenyl)-1H-indol-6-yl)-1-methyl-1H-1,2,4-triazole-5-carboxamide] |
| < 100 | Cn1ncnc1C(=O)Nc1ccc2cc(-c3cc(Cl)ccc3C(F)(F)F)[nH]c2c1 [6/5] |
| < 100 | Cn1ncnc1C(=O)Nc1ccc2cc(-c3cc(F)ccc3C(F)F)[nH]c2c1 [6/3] |
| < 100 | Cc1cc2cc(-c3ccccc3C(F)(F)F)[nH]c2cc1NC(=O)c1ccccn1 [4/1, N-(5-METHYL-2-(2-(TRIFLUOROMETHYL)PHENYL)-1H-INDOL-6-YL)PICOLINAMIDE] |
| < 100 | Cn1nccc1C(=O)Nc1ccc2cc(-c3cc(Cl)ccc3C(F)(F)F)[nH]c2c1 [6/6] |
| < 100 | O=C(Nc1ccc2cc(-c3ccccc3C(F)(F)F)[nH]c2c1)c1ccccn1 [2/5, N-(2-(2-(TRIFLUOROMETHYL)PHENYL)-1H-INDOL-6-YL)PICOLINAMIDE] |
| < 100 | Cn1ncnc1C(=O)Nc1ccc2cc(-c3ccccc3C(F)(F)F)[nH]c2c1 [2/4, 1-METHYL-N-(2-(2-(TRIFLUOROMETHYL)PHENYL)-1H-INDOL-6-YL)-1H-1,2,4-TRIAZOLE-5-CARBOXAMIDE] |
| < 100 | Cc1ccccc1-c1cc2ccc(NC(=O)c3ncnn3C)cc2[nH]1 [3/1, 1-METHYL-N-(2-(O-TOLYL)-1H-INDOL-6-YL)-1H-1,2,4-TRIAZOLE-5-CARBOXAMIDE] |
